Experimental data from patent US20100048548A1, “IMINO-OXAZOLIDINES AND USE THEREOF” (Bayer HealthCare AG, priority 2005, published 2010).

Key:
human factor Xa (FXa) = molecular target: T1, human factor Xa (FXa) (Homo sapiens, UniProt P00742); assay: Determination of the factor Xa inhibition (chromogenic substrate); type: biochemical; settings: human FXa 0.5 nmol/l, Pefachrome FXa 150 μmol/l, 25° C., pH 8.3
T1 construct: factor Xa, which is formed from the proenzyme factor X
Protocol: The enzymatic inhibition of human factor Xa (FXa) is measured using the conversion of a chromogenic substrate specific for FXa. Factor Xa cleaves p-nitroaniline from the chromogenic substrate. The determinations are carried out in microtitre plates as follows:
The test substances, in various concentrations, are dissolved in DMSO and incubated for 10 minutes at 25° C. with human FXa (0.5 nmol/l dissolved in 50 mmol/l of Tris buffer [C,C,C-tris(hydroxymethyl)aminomethane], 150 mmol/l of NaCl, 0.1% BSA [bovine serum albumin], pH=8.3). Pure DMSO is used as control. The chromogenic substrate (150 μmol/l Pefachrome® FXa from Pentapharm) is then added. After an incubation time of 20 minutes at 25° C., the extinction at 405 nm is determined.

plasmin = molecular target: T2, plasmin (Homo sapiens, UniProt P00747); assay: Determination of the selectivity: plasmin inhibition (chromogenic substrate); type: biochemical; settings: plasmin 3.2 nmol/l, Chromozym Plasmin, 37° C., pH 8.0
T2 construct: To determine the enzymatic activity of trypsin (500 mU/ml) and plasmin (3.2 nmol/l)
T2 sequence (P00747 581-810 limits assumed): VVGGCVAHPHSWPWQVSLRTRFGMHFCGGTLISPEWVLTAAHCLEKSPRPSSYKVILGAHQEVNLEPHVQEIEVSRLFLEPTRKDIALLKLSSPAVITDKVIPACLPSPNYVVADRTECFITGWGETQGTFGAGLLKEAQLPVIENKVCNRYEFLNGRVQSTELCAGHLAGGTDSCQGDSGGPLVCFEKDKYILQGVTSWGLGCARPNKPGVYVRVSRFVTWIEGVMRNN
T2 sequence (P00747 97-580 partner limits assumed): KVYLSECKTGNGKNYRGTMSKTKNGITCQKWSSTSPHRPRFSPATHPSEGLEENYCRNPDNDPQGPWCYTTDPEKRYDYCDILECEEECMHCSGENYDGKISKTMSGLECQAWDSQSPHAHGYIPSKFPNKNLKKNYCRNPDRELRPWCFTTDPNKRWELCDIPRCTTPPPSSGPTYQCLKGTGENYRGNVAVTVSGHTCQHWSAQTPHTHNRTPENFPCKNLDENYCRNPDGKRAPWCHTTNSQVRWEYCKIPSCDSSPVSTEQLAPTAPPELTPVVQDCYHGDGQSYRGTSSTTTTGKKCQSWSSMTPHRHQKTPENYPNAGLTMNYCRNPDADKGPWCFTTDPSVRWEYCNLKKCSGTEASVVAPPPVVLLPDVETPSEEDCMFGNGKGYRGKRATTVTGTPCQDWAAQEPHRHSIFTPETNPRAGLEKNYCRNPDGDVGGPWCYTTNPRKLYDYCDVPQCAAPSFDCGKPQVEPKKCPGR
Protocol: (§1) To assess selective FXa inhibition, the test substances are examined for their inhibition of other human serine proteases such as trypsin and plasmin. To determine the enzymatic activity of trypsin (500 mU/ml) and plasmin (3.2 nmol/l), these enzymes are dissolved in Tris buffer (100 mmol/l, 20 mmol/l CaCl2, pH=8.0) and incubated with test substance or solvent for 10 minutes. The enzymatic reaction is then started by adding the corresponding specific chromogenic substrates (Chromozym Trypsin® and Chromozym Plasmin®; from Roche Diagnostics) and the extinction at 405 nm is determined after 20 minutes. All determinations are carried out at 37° C.

trypsin = assay: Determination of the selectivity: trypsin inhibition (chromogenic substrate); type: biochemical, human; settings: trypsin 500 mU/ml, Chromozym Trypsin, 37° C., pH 8.0
Protocol: as §1

T1 sequence (P00742 235-488 limits assumed): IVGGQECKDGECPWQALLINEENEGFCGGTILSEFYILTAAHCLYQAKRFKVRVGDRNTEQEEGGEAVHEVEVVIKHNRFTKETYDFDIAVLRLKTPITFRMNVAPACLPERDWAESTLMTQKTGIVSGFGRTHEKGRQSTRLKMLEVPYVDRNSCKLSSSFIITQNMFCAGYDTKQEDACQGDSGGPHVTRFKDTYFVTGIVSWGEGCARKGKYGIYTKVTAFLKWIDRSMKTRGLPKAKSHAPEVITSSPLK
T1 sequence (P00742 41-179 partner limits assumed): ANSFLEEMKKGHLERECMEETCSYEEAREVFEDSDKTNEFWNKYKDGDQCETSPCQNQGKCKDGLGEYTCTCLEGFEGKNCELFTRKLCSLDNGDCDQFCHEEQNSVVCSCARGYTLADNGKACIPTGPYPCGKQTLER

Q: What does the source list for `N=C1O[C@@H](CNC(=O)c2ccc(Cl)s2)CN1c1ccc(N2CCOCC2=O)cc1` [Example 1, 5-Chloro-N-({(5S)-2-imino-3-[4-(3-oxomorpholin-4-yl)phenyl]-1,3-oxazolidin-5-yl}methyl)-thiophene-2-carboxamide]?
A: IC50 (human factor Xa (FXa)): 0.0054 µM; IC50 (plasmin): > 10 µM; IC50 (trypsin): > 10 µM
